Several values for one entry are separate records, joined by “and”; a condition that tells them apart may be missing. Identical values can stand only once. Like-named read-outs stand apart in the source and are kept apart here.
Columns and labels:
[1] = Animal weight of tumor-bearing mice; settings: individual animals
MMNK1 cholangiocytes = experiment: Growth inhibition (alamarBlue, 96 h); assay type: cell-based, human; settings: for raw viability signal (Source Data Fig. 3b-c): MMNK, replicates
[2] = test system: HBECp53-RET cells (CCDC6-RET fusion); experiment: Growth inhibition (alamarBlue, 96 h); assay type: cell-based, human; settings: for raw viability signal (Source Data Fig. 3b-c): HBEC-RET, replicate sets
[3] = test system: ECLC5 luciferase cells implanted intracranially; experiment: Intracranial efficacy study; assay type: in vivo, NSG mice; settings: for Luminescence Data: Fig. 8e ECLC5 intracranial, individual animals
[4] = test system: LUAD-0002AS1 cells (KIF5B::RET); experiment: Dose-response western blotting, EC50 for inhibition of protein phosphorylation; assay type: cell-based; settings: Homo sapiens, LUAD-0002AS1, 2 h, densitometry
HBECp53-EV cells = experiment: Growth inhibition (alamarBlue, 96 h); assay type: cell-based, human; settings: for raw viability signal (Source Data Fig. 3b-c): HBEC-EV, replicate sets
Ba/F3 cells = experiment: Growth inhibition assay in Ba/F3 cells (CellTiter-Glo, 72 h); assay type: cell-based
[5] = Homo sapiens, 96 h, read-out: IC50 for Inhibition of Growth (95% CI)

## COc1ccc(CN2C3CC2CN(c2ccc(-c4cc(OCC(C)(C)O)cn5ncc(C#N)c45)cn2)C3)cn1 [Selpercatinib]
[1]; LUAD-0077AS1 PDX, Selpercatinib 10 mg/kg BID, treatment day 7
  Animal Weight: 23 g (3×) and 21 g and 24 g
[1]; LUAD-0077AS1 PDX, Selpercatinib 10 mg/kg BID, treatment day 11
  Animal Weight: 24 g (2×) and 23 g (2×) and 21 g
[1]; LUAD-0077AS1 PDX, Selpercatinib 10 mg/kg BID, treatment day 14
  Animal Weight: 23 g and 24 g (2×) and 21 g and 25 g
[1]; LUAD-0077AS1 PDX, Selpercatinib 10 mg/kg BID, treatment day 19
  Animal Weight: 25 g and 23 g and 22 g and 26 g and 24 g
[1]; LUAD-0087AS2 PDX, Selpercatinib 30 mg/kg BID, treatment day 0
  Animal Weight: 27 g (4×) and 28 g
[1]; LUAD-0087AS2 PDX, Selpercatinib 30 mg/kg BID, treatment day 3
  Animal Weight: 26 g (3×) and 28 g and 27 g
[1]; LUAD-0087AS2 PDX, Selpercatinib 30 mg/kg BID, treatment day 7
  Animal Weight: 27 g (3×) and 26 g and 28 g
[1]; LUAD-0087AS2 PDX, Selpercatinib 30 mg/kg BID, treatment day 10
  Animal Weight: 27 g (3×) and 26 g (2×)
[1]; LUAD-0087AS2 PDX, Selpercatinib 30 mg/kg BID, treatment day 14
  Animal Weight: 26 g (3×) and 27 g (2×)
[1]; LUAD-0087AS2 PDX, Selpercatinib 30 mg/kg BID, treatment day 17
  Animal Weight: 27 g (4×) and 26 g
[1]; LUAD-0087AS2 PDX, Selpercatinib 30 mg/kg BID, treatment day 21
  Animal Weight: 28 g and 27 g (2×) and 26 g and 25 g
[1]; LUAD-0087AS2 PDX, Selpercatinib 30 mg/kg BID, treatment day 24
  Animal Weight: 28 g (2×) and 27 g (2×) and 26 g
[1]; LUAD-0087AS2 PDX, Selpercatinib 30 mg/kg BID, treatment day 29
  Animal Weight: 26 g (2×) and 27 g and 28 g (2×)
[1]; LUAD-0087AS2 PDX, Selpercatinib 30 mg/kg BID, treatment day 32
  Animal Weight: 26 g (2×) and 28 g (3×)
[1]; LUAD-0087AS2 PDX, Selpercatinib 30 mg/kg BID, treatment day 35
  Animal Weight: 26 g (2×) and 28 g and 27 g (2×)
[1]; LUAD-0087AS2 PDX, Selpercatinib 30 mg/kg BID, treatment day 38
  Animal Weight: 23 g (2×) and 28 g and 29 g and 26 g
[1]; LUAD-0087AS2 PDX, Selpercatinib 30 mg/kg BID, treatment day 42
  Animal Weight: 27 g (4×) and 26 g
[1]; LUAD-0087AS2 PDX, Selpercatinib 30 mg/kg BID, treatment day 45
  Animal Weight: 28 g (3×) and 27 g (2×)
MMNK1 cholangiocytes; [5]
  IC50: 7.93 µM
MMNK1 cholangiocytes; 0.01 nM
  raw viability signal (Source Data Fig. 3b-c): 14041 and 14658.8
MMNK1 cholangiocytes; 0.1 nM
  raw viability signal (Source Data Fig. 3b-c): 13930.7 and 15331
MMNK1 cholangiocytes; 1 nM
  raw viability signal (Source Data Fig. 3b-c): 13461 and 14668.6
MMNK1 cholangiocytes; 10 nM
  raw viability signal (Source Data Fig. 3b-c): 13703.4 and 14128
MMNK1 cholangiocytes; 100 nM
  raw viability signal (Source Data Fig. 3b-c): 13905.3 and 14051.8
MMNK1 cholangiocytes; 1000 nM
  raw viability signal (Source Data Fig. 3b-c): 12731.7 and 12599.2
MMNK1 cholangiocytes; 10000 nM
  raw viability signal (Source Data Fig. 3b-c): 6976.41 and 6993.09
[2]; 0.01 nM
  raw viability signal (Source Data Fig. 3b-c): 18093.2 and 9060.84 and 18084.5
[2]; 0.1 nM
  raw viability signal (Source Data Fig. 3b-c): 17267.5 and 9270.44 and 17759.2
[2]; 1 nM
  raw viability signal (Source Data Fig. 3b-c): 17188.9 and 9066.79 and 17837.1
[2]; 10 nM
  raw viability signal (Source Data Fig. 3b-c): 6462.76 and 8147.32 and 16191.8
[2]; 100 nM
  raw viability signal (Source Data Fig. 3b-c): 3445.11 and 2694.56 and 6209.19
[2]; 1000 nM
  raw viability signal (Source Data Fig. 3b-c): 2899.6 and 1772.22 and 5277.83
[2]; 10000 nM
  raw viability signal (Source Data Fig. 3b-c): 2192.17 and 1006.02 and 4021.33
[2]; Homo sapiens, 96 h, read-out: IC50 for Inhibition of Growth (95% CI), HBECp53-RET, alamarBlue, 96 h
  IC50: 26 nM
[3]; 10 mg per kg BID
  median survival time: 99 d of treatment
[3]; Fig. 8e (middle panel) ECLC5 luminescence, 10 mg/kg BID
  Area Under Curve Mean: 27186332000
[3]; 10 mg/kg BID, treatment day 0 (=1)
  Luminescence Data: 1
[3]; 10 mg/kg BID, treatment day 5, day 0 = 1, 10 mg/kg
  Luminescence Data: 1.5865 and 1.821 and 1.255 and 0.4814 and 3.25 and 0.8886
[3]; 10 mg/kg BID, treatment day 12, day 0 = 1, 10 mg/kg
  Luminescence Data: 3.019 and 2.275 and 2.308 and 0.7742 and 2.674 and 1.142
[3]; 10 mg/kg BID, treatment day 18, day 0 = 1, 10 mg/kg
  Luminescence Data: 4.468 and 13.8627 and 3.677 and 17.2275 and 4.61 and 2.3303
[3]; 10 mg/kg BID, treatment day 26, day 0 = 1, 10 mg/kg
  Luminescence Data: 4.838 and 8.783 and 2.8 and 90.8154 and 2.049 and 2.4586
[3]; 10 mg/kg BID, treatment day 33, day 0 = 1, 10 mg/kg
  Luminescence Data: 19.3932 and 14.9637 and 7.347 and 180.944 and 3.353 and 5.483
[3]; 10 mg/kg BID, treatment day 40, day 0 = 1, 10 mg/kg
  Luminescence Data: 20.6751 and 16.1418 and 17.1097 and 476.137 and 5.8 and 4.798
[3]; 10 mg/kg BID, treatment day 46, day 0 = 1, 10 mg/kg
  Luminescence Data: 53.1577 and 52.4694 and 35.0274 and 881.545 and 19.3617 and 18.0494
[3]; 10 mg/kg BID, treatment day 55, day 0 = 1, 10 mg/kg
  Luminescence Data: 200.4 and 271.183 and 155.59 and 1935.62 and 78.0003 and 75.6827
[3]; 10 mg/kg BID, treatment day 61, day 0 = 1, 10 mg/kg
  Luminescence Data: 323.18 and 414.363 and 232.604 and 1527.04 and 186.289 and 64.6294
[3]; 10 mg/kg BID, treatment day 68, day 0 = 1, 10 mg/kg
  Luminescence Data: 561.802 and 676.257 and 207.714 and 1673.82 and 333.171 and 210.62
[3]; 10 mg/kg BID, treatment day 75, day 0 = 1, 10 mg/kg
  Luminescence Data: 570.505 and 1484.59 and 792.807 and 4751.93 and 432.014 and 174.469
[3]; 10 mg/kg BID, treatment day 82, day 0 = 1, 10 mg/kg
  Luminescence Data: 999.294 and 1867.47 and 955.043 and 3557.94 and 547.305 and 464.239
[4]; read-out: EC50 for Inhibition of Protein Phosphorylation (95% CI), AKT S473
  EC50: 2 nM
[4]; read-out: EC50 for Inhibition of Protein Phosphorylation (95% CI), ERK1/2 T202/Y204
  EC50: 1.5 nM
[4]; read-out: EC50 for Inhibition of Protein Phosphorylation (95% CI), MEK1/2 S217/S221
  EC50: 1.3 nM
[4]; read-out: EC50 for Inhibition of Protein Phosphorylation (95% CI), P70 RSK T421/S424
  EC50: 1.4 nM
[4]; read-out: EC50 for Inhibition of Protein Phosphorylation (95% CI), RET Y905
  EC50: 0.4 nM
[4]; read-out: EC50 for Inhibition of Protein Phosphorylation (95% CI), S6RP S235/S236
  EC50: 0.5 nM
HBECp53-EV cells; 0.01 nM
  raw viability signal (Source Data Fig. 3b-c): 19116.4 (2×) and 30437.1
HBECp53-EV cells; 0.1 nM
  raw viability signal (Source Data Fig. 3b-c): 18667.6 (2×) and 30340.4
HBECp53-EV cells; 1 nM
  raw viability signal (Source Data Fig. 3b-c): 19461.2 (2×) and 29511.3
HBECp53-EV cells; 10 nM
  raw viability signal (Source Data Fig. 3b-c): 19276.9 (2×) and 28618.6
HBECp53-EV cells; 100 nM
  raw viability signal (Source Data Fig. 3b-c): 19331.4 (2×) and 28192.3
HBECp53-EV cells; 1000 nM
  raw viability signal (Source Data Fig. 3b-c): 18208.7 (2×) and 25648.6
HBECp53-EV cells; 10000 nM
  raw viability signal (Source Data Fig. 3b-c): 8503.33
HBECp53-EV cells; [5]
  IC50: 11.4 µM
Ba/F3 cells; Ba/F3 (parental), replicate Sets 1-3
  GI50: 3.87 µM and 3.57 µM
Ba/F3 cells; Mus musculus, BaF3, 72 h, read-out: GI50 value (Mean ± SD), Ba/F3, CellTiter-Glo, 72 h
  GI50: 3.98 µM
Ba/F3 cells; Mus musculus, BaF3, Ba/F3 (parental), replicate Sets 1-3
  GI50: 4.49 µM

Source: publication PMC10518257 (Nature Cancer, 2023)
